# Measured values reported in patent US12606543B2, “Indole derivatives as serotonergic agents useful for the treatment of disorders related thereto” (priority 2023, dated 2026).
# How the values were obtained:
# [1] = Liver microsomes stability, rat; format: in vitro ADME; conditions: for half-life at 2 μM / microsomal CLint at 2 μM / CLint scaled at 2 μM: male; for CLint scaled at 2 μM: read-out: Scaled-up CLint
# Method: (§1) The objective of this study was to estimate in vitro metabolic stability of exemplary compounds of Formula (I) or a pharmaceutically acceptable salt, solvate, and/or prodrug thereof in pooled human, male rat, and male mouse liver microsomes. The concentrations of compounds in reaction systems were evaluated by LC-MS/MS for estimating the stability in pooled human, male rat, and male mouse liver microsomes. The in vitro intrinsic clearances of test compounds were determined as well.
# (§2) A master solution in the “Incubation Plate” containing phosphate buffer, ultra-pure H2O, MgCl2 solution and liver microsomes was made according to Table 33. The mixture was pre-warmed at 37° C. water bath for 5 minutes.
# (§3) 40 μL of 10 mM nicotinamide adenine dinucleotide phosphate (NADPH) solution was added to each well. The final concentration of NADPH was 1 mM. The negative control samples were prepared by replacing NADPH with 40 μL of ultra-pure H2O. Samples were prepared in duplicate. Negative controls were prepared in singlet.
# (§4) The reaction was started with the addition of 4 μL of 200 μM exemplary test compounds of the disclosure or control compounds to each master solution to get the final concentration of 2 μM. This study was performed in duplicate.
# (§5) Aliquots of 50 μL were taken from the reaction solution at 0, 15, 30, 45, and 60 minutes. The reaction solutions were stopped by the addition of 4 volumes of cold methanol with IS (100 nM alprazolam, 200 nM imipramine, 200 nM labetalol, and 2 μM ketoprofen). Samples were centrifuged at 3,220 g for 40 minutes. Aliquot of 90 μL of the supernatant was mixed with 90 μL of ultra-pure H2O and then was used for LC-MS/MS analysis.
# (§6) LC/MS analysis was performed for all samples from this study using a Shimadzu liquid chromatograph separation system equipped with degasser DGU-20A5R; solvent delivery unit LC-30AD; system controller SIL-30AC; column oven CTO-30A; CTC Analytics HTC PAL System. Mass spectrometric analysis was performed using a Triple Quad™ 5500 instrument.
# (§7) All calculations were carried out using Microsoft Excel. Peak area ratios of test compound to internal standard (listed in the below table) were determined from extracted ion chromatograms.
# (§8) All calculations were carried out using Microsoft Excel. Peak areas were determined from extracted ion chromatograms. The slope value, k, was determined by linear regression of the natural logarithm of the remaining percentage of the parent drug vs. incubation time curve.
# (§9) The in vitro half-life (in vitro t1/2) was determined from the slope value:
# (§10) Conversion of the in vitro t1/2 (min) into the in vitro intrinsic clearance (in vitro CLint, in μL/min/mg proteins) was done using the following equation (mean of duplicate determinations): […]
# as §1, with “solvate” for “solvate,”, “rat” for “rat,”
# (§11) A master solution in the “Incubation Plate” containing phosphate buffer, ultra-pure H2O, MgCl2 solution and liver microsomes was made according to Table 67. The mixture was pre-warmed at 37° C. water bath for 5 minutes.
# (§12) 40 μL of 10 mM NADPH solution was added to each well. The final concentration of NADPH was 1 mM. The negative control samples were prepared by replacing NADPH with 40 μL of ultra-pure H2O. Samples were prepared in duplicate. Negative controls were prepared in singlet
# (§13) Aliquots of 50 μL were taken from the reaction solution at 0, 15, 30, 45 and 60 minutes. The reaction solutions were stopped by the addition of 4 volumes of cold methanol with IS (100 nM alprazolam, 200 nM imipramine, 200 nM labetalol and 2 μM ketoprofen). […]
# [2] = Liver microsomes stability, mouse; format: in vitro ADME; conditions: for half-life at 2 μM / microsomal CLint at 2 μM / CLint scaled at 2 μM: male; for CLint scaled at 2 μM: read-out: Scaled-up CLint
# Method: as §1, §2, §3, §4, §5, §6, §7, §8, §9, §10
# as §1, with “solvate” for “solvate,”, “rat” for “rat,”
# as §11, §12, §13
# [3] = Plasma protein binding by equilibrium dialysis, rat
# Method: 1. The Frozen Plasma (Stored at −80° C.) was Thawed Immediately in a 37° C. Water Bath.
# (§14) The working solution of test compounds and control compound was prepared in DMSO at the concentration of 200 μM, and then the working solution was spiked into plasma. The final concentration of compound was 1 μM. The final concentration of DMSO was 0.5%. Ketoconazole was used as positive control in the assay.
# The dialysis membranes were soaked in ultrapure water for 60 minutes to separate strips, then in 20% ethanol for 20 minutes, finally in dialysis buffer for 20 minutes.
# The dialysis set up was assembled according to the manufacturer's instruction. Each Cell was with 150 μL of plasma sample and dialyzed against equal volume of dialysis buffer (PBS). The assay was performed in duplicate. The dialysis plate was sealed and incubated in an incubator at 37° C. with 5% CO2 at 100 rpm for 6 hours. At the end of incubation, 50 μL of samples from both buffer and plasma chambers were transferred to wells of a 96-well plate.
# 50 μL of plasma was added to each buffer samples and an equal volume of PBS was supplemented to the collected plasma sample. 400 μL of precipitation buffer acetonitrile containing internal standards (IS, 200 nM labetalol, 100 nM tolbutamide and 100 nM ketoprofen) was added to precipitate protein and release compounds. Samples were vortexed for 2 minutes and centrifuged for 30 minutes at 3,220 g. Aliquot of 50 μL of the supernatant was diluted by 150 μL acetonitrile containing internal standards: ultra-pure H2O=1:1, and the mixture was used for LC-MS/MS analysis.
# All calculations were carried out using Microsoft Excel. The concentrations of test compounds in the buffer and plasma chambers were determined from peak area ratios. The percentages of bound compound were calculated as follows: […]
# as §14, with “[…].” for “μM.”
# [4] = rat liver microsomes, 2 μM compound, 0.5 mg/mL microsomes
# [5] = pooled liver microsomes, mouse liver microsomes, 2 μM compound, 0.5 mg/mL microsomes
# [6] = mouse liver microsomes, With Cofactors, 0 min
# [7] = mouse liver microsomes, With Cofactors, 30 min
# [8] = mouse liver microsomes, With Cofactors, 60 min
# [9] = mouse liver microsomes, Without Cofactors, 0 min
# [10] = mouse liver microsomes, Without Cofactors, 30 min
# [11] = mouse liver microsomes, Without Cofactors, 60 min
# [12] = Rat liver microsomes, 2 μM, 0.5 mg/mL, NADPH
structure (smiles),measurement,setting,value
[2H]C([2H])(c1c[nH]c2ccc(OCCCCCN3C(=O)C4CCCCC4C3=O)cc12)[C@H]1CCCN1C([2H])([2H])[2H] (mixture of isomers) [Rac (R) I-248],half-life at 2 μM,[1]; [4],< 4.51 min
same,microsomal CLint at 2 μM,[1]; [4],> 307 µL/min/mg
same,CLint scaled at 2 μM,[1]; rat liver microsomes,> 550 mL/min/kg
same,Predicted hepatic CL,[1]; rat liver microsomes,>50.17 mL/min/kg
same,Remaining Percentage,"[1]; rat liver microsomes, With Cofactors, 0 min",100.00%
same,Remaining Percentage,"[1]; rat liver microsomes, With Cofactors, 30 min",0.95%
same,Remaining Percentage,"[1]; rat liver microsomes, With Cofactors, 60 min",0.19%
same,Remaining Percentage,"[1]; rat liver microsomes, Without Cofactors, 0 min",100.00%
same,Remaining Percentage,"[1]; rat liver microsomes, Without Cofactors, 30 min",94.04%
same,Remaining Percentage,"[1]; rat liver microsomes, Without Cofactors, 60 min",94.04%
same,half-life at 2 μM,[2]; [5],< 4.51 min
same,microsomal CLint at 2 μM,[2]; [5],> 307 µL/min/mg
same,CLint scaled at 2 μM,[2]; mouse liver microsomes,> 1340 mL/min/kg
same,Predicted hepatic CL,[2]; mouse liver microsomes,>84.35 mL/min/kg
same,Remaining Percentage,[2]; [6],100.00%
same,Remaining Percentage,[2]; [7],0.15%
same,Remaining Percentage,[2]; [8],0.19%
same,Remaining Percentage,[2]; [9],100.00%
same,Remaining Percentage,[2]; [10],99.54%
same,Remaining Percentage,[2]; [11],95.85%
"CSc1ccc2[nH]cc(C[C@H]3CCCN3C)c2c1 [(R) I-1, (R)-3-((1-Methylpyrrolidin-2-yl)methyl)-5-(methylthio)-1H-indole]",Predicted hepatic CL,[1]; Rat liver microsomes,44.80 mL/min/kg
same,Remaining Percentage (%) 0 min,"[1]; Rat liver microsomes, With Cofactors, 0 min",100.00%
same,Remaining Percentage (%) 30 min,"[1]; Rat liver microsomes, With Cofactors, 30 min",13.67%
same,Remaining Percentage (%) 60 min,"[1]; Rat liver microsomes, With Cofactors, 60 min",0.44%
same,Remaining Percentage (%) 0 min,"[1]; Rat liver microsomes, Without Cofactors, 0 min",100.00%
same,Remaining Percentage (%) 30 min,"[1]; Rat liver microsomes, Without Cofactors, 30 min",93.44%
same,Remaining Percentage (%) 60 min,"[1]; Rat liver microsomes, Without Cofactors, 60 min",95.17%
same,half-life at 2 μM,[1]; [12],10.4 min
same,microsomal CLint at 2 μM,[1]; [12],133 µL/min/mg
same,CLint scaled at 2 μM,[1]; Rat liver microsomes,238 mL/min/kg
same,Predicted hepatic CL,[2]; Mouse liver microsomes,>84.35 mL/min/kg
same,half-life at 2 μM,"[2]; Mouse liver microsomes, 2 μM, 0.5 mg/mL, NADPH, <4.51 if % remaining at 30 min below 1%",< 4.51 min
same,microsomal CLint at 2 μM,"[2]; Mouse liver microsomes, 2 μM, 0.5 mg/mL, NADPH, >307.01 if % remaining at 30 min below 1%",> 307 µL/min/mg
same,CLint scaled at 2 μM,[2]; mouse liver microsomes,> 1340 mL/min/kg
same,Remaining Percentage (%) 0 min,[2]; [6],100.00%
same,Remaining Percentage (%) 30 min,[2]; [7],0.15%
same,Remaining Percentage (%) 60 min,[2]; [8],0.23%
same,Remaining Percentage (%) 0 min,[2]; [9],100.00%
same,Remaining Percentage (%) 30 min,[2]; [10],98.55%
same,Remaining Percentage (%) 60 min,[2]; [11],103.02%
same,% Remaining @ 6 hours,"[3]; Rat plasma, 1 μM, 6 hours, 37° C.",105.76%
same,"recovery at 6 h, 1 µM","[3]; SD, rat",103%
same,"fraction unbound at 6 h, 1 μM","[3]; Sprague-Dawley, rat, plasma",0.534
